Results reported in PubChem BioAssay AID1963839 (Molecular Pharmacology Branch, DTP, NCI, 2024).
pIC50: −log10 of the molar value. Where “and” joins values, the source holds several entries; their conditions need not be identical. Identical values can stand only once.

System: 817829-284-R-J1-PDC complex spheroid viability
Experiment: Anticancer human tumor 817829-284-R-J1-PDC patient-derived colon adenocarcinoma cell line growth inhibition [POLQ]
Conditions: for viability, T/C: stronger effect = lower value
Experimental: Multicellular complex tumor spheroid response to Polymerase (POL) inhibitors (novobiocin, ART-558, RP6685) in combination with a variety of drugs and investigational agents in selected tumor cell lines
The POL inhibitors (novobiocin, ART-558, and RP6685) were evaluated both individually and in combination with standard of care and investigational anticancer small molecules within a complex spheroid model of solid tumors. . Complex spheroids include a stromal component modeled by human endothelial cells (HUVEC) and fibroblasts modeled by human mesenchymal stem cells (MSCs). The concentration ranges selected for each drug and investigational agent were based upon clinically achievable concentrations if the clinical Cmax of the agent was known.
Compounds. The drugs and investigational agents: novobiocin (NSC847541), ART-558 (NSC835418), RP-6685 (NSC848927), peposertib (NSC802822), ceralasertib (NSC780249), elimusertib (NSC800525), camonsertib (NSC841442), AZD-1390 (NSC803789), olaparib (NSC753686), talazoparib (NSC767125), rucaparib (NSC756644), sotorasib (NSC818433), MRTX-1133 (NSC836407), SN-38 (NSC673596), topotecan (NSC609699), epotoside (NSC141540), doxorubicin (NSC123127), gemcitabine (NSC613327), 5-fluorouracil (NSC19893), paclitaxel (NSC125973), vemurafenib (NSC761431), MSA-2 (NSC828583), SN-011 (NSC837082), adavosertib (NSC754352), prexasertib (NSC758257), carboplatin (NSC241240) and oxaliplatin (NSC266046), were obtained from the National Cancer Institute (NCI) Developmental Therapeutics Program Chemical Repository (21). The FDA-approved anticancer drug set is available from the Developmental Therapeutics Program at https://dtp.cancer.gov/organization/dscb/obtaining/. […] The stock solutions were prepared in dimethyl sulfoxide (DMSO, Sigma-Aldrich, St. Louis, MO, cat. D2650), except for the platinum compounds which were prepared in saline (Quality Biological, Gaithersburg, MD, cat. 114-055-101), at 800-fold the tested concentration and stored at -70 degrees C prior to their use. All drugs and investigational agents were tested over a range starting from a high concentration at or near the clinical Cmax and decreasing in half-log increments. If the clinical Cmax for an agent had not been determined, the highest concentration tested was 10 microM, except for SN-38, which was tested at a high concentration of 1 microM.
Cell Culture. All cells were maintained in an incubator at 37 degrees C and 5% CO2 with 95% humidity. The PDC lines were cultured according to standard operating procedures established by the NCI PDMR (https://pdmr.cancer.gov). Table 3 of the manuscript, lists the cell lines along with the number of the three cell types plated to form the mct-spheroids and media for tumor cell growth. After thawing, all PDC lines, except 997537-175-T-J1-PDC and 415267-285-R-J2-PDC, were cultured in Matrigel-coated flasks prepared with a working solution of 1X Ham's F-12 nutrient mix, without supplementation (Thermo Fisher Scientific, cat. 11765054), 100 U/mL penicillin-streptomycin (Thermo Fisher Scientific, cat. 15140122), and 2.5% Matrigel (Corning Inc., Corning, NY, cat. 354248) for the first three passages. The two PDC lines 997537-175-T-J1-PDC and 415267-285-R-J2-PDC were cultured on uncoated flasks. The 857933-349-R-J2-PDC line was cultured in 6C/Colon 1B media containing advanced DMEM/F-12 (Thermo Fisher Scientific, cat. 12634028), 10 mM HEPES (Thermo Fisher Scientific, cat. 15630080), 1X GlutaMAX supplement (Thermo Fisher Scientific, cat. 35050061), 0.1 mg/mL primocin (InvivoGen, San Diego, CA, cat. ant-pm-2), 10% defined fetal bovine serum, heat inactivated (HyClone Laboratories Inc., Logan, UT, cat. SH30070.03HI), 50% L-WRN conditioned media (ATCC, cat. CRL-3276), 1.25 mM N-Acetyl-L-cysteine (Sigma-Aldrich, cat. A9165), 10 mM nicotinamide (Sigma-Aldrich, cat. N0636), 1X B-27 supplement (Thermo Fisher Scientific, cat. 17504044), 1X N-2 supplement (Thermo Fisher Scientific, cat. […]

[1] = compound alone, run of 11/27/2023
[2] = compound alone, run of 12/05/2023
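Note: spheroids exposed to compounds for 7 days.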
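Throughout, for viability, T/C: 100% = DMSO vehicle-treated spheroids.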

Row | Compound | viability, T/C (compound 0.0316 µM) | viability, T/C (compound 0.1 µM) | viability, T/C (compound 0.316 µM) | viability, T/C (compound 1 µM) | viability, T/C (compound 3.16 µM) | viability, T/C (compound 10 µM) | pIC50 (curve of compound) | pIC50 [1] | viability, T/C (compound 0.00316 µM) | viability, T/C (compound 0.01 µM) | pIC50 [2] | viability, T/C (compound 0.000316 µM) | viability, T/C (compound 0.001 µM)
1 | CNCc1ccc(-c2[nH]c3cc(F)cc4c3c2CCNC4=O)cc1 | 86.8% and 88% and 73.1% | 81.9% and 77.7% and 81.3% | 63.4% and 89.9% and 53.7% | 68.6% and 81.8% and 58.3% | 51.3% and 64.6% and 58.9% | 47.6% (2×) and 40.2% | 5.19 and 5.20 and 5.02 |  |  |  |  |  | 
2 | COC1C(OC(N)=O)C(O)C(Oc2ccc3c(O)c(NC(=O)c4ccc(O)c(CC=C(C)C)c4)c(=O)oc3c2C)OC1(C)C (stereo not drawn) |  |  |  |  |  |  |  | < 5.00 |  |  |  |  | 
3 | COc1cc(C2c3cc4c(cc3C(OC3OC5COC(C)OC5C(O)C3O)C3COC(=O)C23)OCO4)cc(OC)c1O (stereo not drawn) | 60.4% and 73.7% and 73.4% | 32.3% and 48.6% and 33.4% | 15.3% and 18.4% and 14.9% | 19.1% and 18.8% and 20.4% | 16.7% and 11.9% and 11.2% | 6.7% and 6.64% and 6.97% | 7.32 and 7.04 and 7.21 |  |  |  |  |  | 
4 | COc1cc2cc(C(=O)CCC(=O)O)sc2cc1OC | 114% and 112% and 90.4% | 88.4% and 107% and 83.7% | 94% and 105% and 84% | 81.1% and 89.5% and 102% | 100% and 110% and 98.6% | 88.8% and 101% and 63.2% | < 5.00 |  |  |  |  |  | 
5 | COc1ccc([C@@H](O)c2cc(-c3ncnc4cc(N5CCOCC5)ccc34)c(F)cc2Cl)nn1 | 79.4% and 93.7% and 78.8% | 94.5% and 91% and 91.4% | 65.4% and 72.2% and 74.5% | 41% and 43.4% and 43.2% | 30.4% and 40.3% and 25.8% | 19.4% and 22.7% and 12.3% | 6.16 and 6.05 and 6.08 |  |  |  |  |  | 
6 | COc1cccc(OCCCN)c1-c1cc(Nc2cnc(C#N)cn2)n[nH]1 | 6.55% and 5.13% and 5.86% | 4.87% and 4.67% and 4.64% | 4.09% and 5.43% and 4.13% | 3.68% (2×) and 3.24% |  |  | > 8.50 and 8.21 and 8.23 |  | 33.5% and 96.3% and 91.2% | 8.6% and 15.6% and 14.9% |  |  | 
7 | COc1cccc2c1C(=O)c1c(O)c3c(c(O)c1C2=O)CC(O)(C(=O)CO)CC3OC1CC(N)C(O)C(C)O1 (stereo not drawn) | 16.9% and 19.5% and 19.8% | 16.4% and 18.4% and 91.1% | 5.17% and 6.51% and 6.09% | 1.01% and 0.37% and 0.7% | 0.33% and 0.32% and 0.25% | 0.58% and 0.63% and 0.52% | > 7.50 and 6.94 |  |  |  |  |  | 
8 | Cc1cccc(N(C)C(=O)C2C(O)CCN2c2nc(C)cc(C(F)(F)F)c2C#N)c1 (stereo not drawn) |  |  |  |  |  | 99.5% [middle of 13 runs] |  | < 5.00 |  |  | < 5.00 |  | 
9 | Cn1ncnc1[C@H]1c2n[nH]c(=O)c3cc(F)cc(c23)N[C@@H]1c1ccc(F)cc1 | 38.1% and 61.4% and 34% | 29.1% and 35.4% and 36.5% |  |  |  |  | 7.93 and 7.43 and 7.83 |  | 54.7% and 74.7% and 71.7% | 62.7% and 56.4% and 57.5% |  | 80.8% and 91.3% and 74.5% | 64% and 85.5% and 71.1%
10 | Nc1ccc(C#CCN(C(=O)Cc2ncc(C(F)(F)F)cc2C(F)(F)F)c2ccc(F)cc2)nn1 |  |  |  |  | 97.9% [middle of 13 runs] | 99.7% [middle of 13 runs] |  |  |  |  | < 5.00 |  | 
11 | Nc1ccn(C2OC(CO)C(O)C2(F)F)c(=O)n1 (stereo not drawn) | 5.66% and 4.03% and 5.85% | 5.98% and 3.62% and 5.26% | 6.49% and 4.28% and 5.54% | 5.15% and 3.77% and 4.65% | 4.26% and 2.95% and 4.25% | 3.15% and 2.31% and 3.29% | > 7.50 |  |  |  |  |  | 
12 | O=C(Nc1ccc(O)c(NS(=O)(=O)c2ccc(F)cc2)c1)c1ccc(-c2ccccc2)cc1 | 94% and 91.9% and 101% | 96.5% and 104% and 103% | 93.7% and 100% and 103% | 92.4% and 99.3% and 78.3% | 73.5% and 88.2% and 76.5% | 38.7% and 41.5% and 39.8% | 5.16 and 5.09 and 5.15 |  |  |  |  |  | 
13 | O=C(c1cc(Cc2n[nH]c(=O)c3ccccc23)ccc1F)N1CCN(C(=O)C2CC2)CC1 |  |  |  |  |  | 22.3% and 7.71% and 32.7% |  |  |  |  |  |  | 
14 | O=c1[nH]cc(F)c(=O)[nH]1 | 104% and 91.8% and 101% | 104% and 98.7% and 75.8% | 93% and 94.3% and 74.7% | 69.7% and 67.1% and 72.8% | 50.6% and 38.9% and 57.3% | 44.5% and 29.5% and 45.3% | 5.46 and 5.71 and 5.12 |  |  |  |  |  | 
